Experimental data taken from patent publication US20190209501A1, “COMPOSITIONS AND METHODS OF USE OF BETA-HYDROXY-BETA-METHYLBUTYRATE (HMB) […] IN[…]” (Texas Tech University Office of Research Commercialization, priority 2018, published 2019).

Columns and labels:
Type in all cases: in vivo, human
[1] = Countermovement vertical jump (jump height); conditions: for Jump Height ES (d): Cohen's d baseline vs week 8; for Jump Height Δ (%): change baseline to week 8 relative to baseline; for Jump Height Δ: week 8 minus baseline
Excerpt: For the CMVJ tests, participants completed eight trials while wearing their own footwear. Approximately 30 seconds rest separated each trial. Ground reaction force (GRF) data were obtained during the CMVJ using two force platforms sampled at 1 kHz (OPT464508; Advanced Mechanical Technology, Inc., Watertown, Mass. USA). Participants stood motionless with each foot positioned on a force platform and their hands on their hips before initiating the CMVJ with a countermovement action using a self-selected depth and jumping with maximum effort to achieve the highest vertical displacement possible. No instructions were provided for the landing phase except to land with each foot contacting its respective force platform from take-off and to stop downward motion and return to a motionless standing position. The raw GRF data from the two force platforms were smoothed using a fourth order low pass Butterworth digital filter with a 30 Hz cutoff frequency. The smoothed GRF from the two force platforms was then summed along the vertical axis to obtain the vertical GRF acting at the body center of mass. The start of the CMVJ was defined as the time when bodyweight was reduced by 2.5% (29). Take-off was defined as the time when the summed vertical GRF decreased below a 20 N threshold (30). Jump time was then calculated as the time elapsed between the start of the CMVJ and take-off, expressed in units of seconds. Vertical jump height was calculated using the impulse-momentum relationship and expressed in units of meters.

[2] = Vascular assessments (blood pressure, aortic pulse wave velocity); design: Pulse Wave Velocity: unit not given here; conditions: for Aortic Diastolic Pressure / Aortic Systolic Pressure / Brachial Diastolic Pressure / Brachial Systolic Pressure / Heart Rate / Pulse Wave Velocity: mean ± SE; for Aortic Diastolic Pressure Δ / Aortic Diastolic Pressure Δ (%) / Aortic Systolic Pressure Δ / Aortic Systolic Pressure Δ (%) / Brachial Diastolic Pressure Δ / Brachial Diastolic Pressure Δ (%) / Brachial Systolic Pressure Δ / Brachial Systolic Pressure Δ (%) / Heart Rate Δ / Heart Rate Δ (%) / Pulse Wave Velocity Δ / Pulse Wave Velocity Δ (%): change baseline to W 8; for Aortic Diastolic Pressure ES (d) / Aortic Systolic Pressure ES (d) / Brachial Diastolic Pressure ES (d) / Brachial Systolic Pressure ES (d) / Heart Rate ES (d) / Pulse Wave Velocity ES (d): effect size
Procedure: Brachial blood pressure was measured using an automated cuff-based sphygmomanometer (HEM-907, Omron Healthcare. Kyoto, Japan). From this measurement, mean blood pressure and diastolic blood pressure were used to calibrate ensemble-averaged pressure waveforms measured at the left radial artery using applanation tonometry (SphygmoCor PVx, AtCor Medical, Itasca, Ill., USA). A general transfer function was also used to synthesize a central aortic waveform from the radial artery measurement. Wave separation analysis of the aortic pressure waveform allowed estimation of aortic pulse wave velocity (PWV), an index of arterial stiffness. Each participant remained supine for ≥10 min prior to vascular assessment. Duplicate measurements were obtained and averaged for analysis.

[3] = Resistance training workout volume; conditions: for LB Volume ES (d) / LS Session Volume ES (d) / UB Session Volume ES (d) / UB Volume ES (d): effect size; for LB Volume Δ / LB Volume Δ (%) / LS Session Volume Δ / LS Session Volume Δ (%) / UB Session Volume Δ / UB Session Volume Δ (%) / UB Volume Δ / UB Volume Δ (%): first to second 4 weeks
Excerpt: All groups completed 8 weeks of supervised RT in conjunction with the assigned dietary and supplementation programs. Training took place within the research laboratories under direct supervision. RT sessions were completed on 3 nonconsecutive days each week (i.e. Mondays, Wednesdays and Fridays), and upper- and lower-body sessions were alternated (Table 1).
Participants were instructed to train to momentary muscular exhaustion for each set, and the load was adjusted as necessary to ensure compliance with the specified repetition range. The weights and repetitions completed for each set of each exercise were recorded to allow for calculation of RT volume. Sessions took place between 12:00 and 18:00. […] Following each RT session, participants from each group were provided with 25 g whey protein (Elite 100% Whey, Dymatize Enterprises, LLC, Dallas, Tex. USA).

## CC(C)(O)CC(=O)O [TRFHMB, β-hydroxy-β-methylbutyrate]
[1]; ITT analysis
  Jump Height ES (d): 0.65
  Jump Height Δ (%): 29%
  Jump Height Δ: 0.06
[1]; ITT analysis, week 8, mean ± SE, method b87 expresses jump height in meters
  Jump Height W 8: 0.27 ± 0.03
[1]; PP analysis
  Jump Height ES (d): 0.21
  Jump Height Δ (%): 9%
  Jump Height Δ: 0.02
[2]; ITT, Baseline
  Aortic Diastolic Pressure: 68 ± 2 mmHg
  Aortic Systolic Pressure: 96 ± 2 mmHg
  Brachial Diastolic Pressure: 67 ± 1 mmHg
  Brachial Systolic Pressure: 112 ± 2 mmHg
  Heart Rate: 62 ± 3 bpm
  Pulse Wave Velocity: 5.5 ± 0.2
[2]; ITT, W 8
  Aortic Diastolic Pressure: 64 ± 2 mmHg
  Aortic Systolic Pressure: 94 ± 2 mmHg
  Brachial Diastolic Pressure: 63 ± 2 mmHg
  Brachial Systolic Pressure: 110 ± 2 mmHg
  Heart Rate: 63 ± 3 bpm
  Pulse Wave Velocity: 5.7 ± 0.1
[2]; ITT
  Aortic Diastolic Pressure Δ: −4 mmHg
  Aortic Diastolic Pressure Δ (%): −6%
  Aortic Systolic Pressure Δ: −2 mmHg
  Aortic Systolic Pressure Δ (%): −2%
  Brachial Diastolic Pressure Δ: −4 mmHg
  Brachial Diastolic Pressure Δ (%): −6%
  Brachial Systolic Pressure Δ: −2 mmHg
  Brachial Systolic Pressure Δ (%): −2%
  Heart Rate Δ: 1 bpm
  Heart Rate Δ (%): 2%
  Pulse Wave Velocity Δ: 0.2
  Pulse Wave Velocity Δ (%): 4%
  Aortic Diastolic Pressure ES (d): −0.64
  Aortic Systolic Pressure ES (d): −0.46
  Brachial Diastolic Pressure ES (d): −0.63
  Brachial Systolic Pressure ES (d): −0.22
  Heart Rate ES (d): 0.07
  Pulse Wave Velocity ES (d): 0.37
[2]; PP, Baseline
  Aortic Diastolic Pressure: 68 ± 2 mmHg
  Aortic Systolic Pressure: 97 ± 2 mmHg
  Brachial Diastolic Pressure: 67 ± 2 mmHg
  Brachial Systolic Pressure: 111 ± 2 mmHg
  Heart Rate: 62 ± 5 bpm
  Pulse Wave Velocity: 5.5 ± 0.3
[2]; PP, W 8
  Aortic Diastolic Pressure: 65 ± 2 mmHg
  Aortic Systolic Pressure: 95 ± 2 mmHg
  Brachial Diastolic Pressure: 64 ± 2 mmHg
  Brachial Systolic Pressure: 112 ± 2 mmHg
  Heart Rate: 62 ± 5 bpm
  Pulse Wave Velocity: 5.8 ± 0.2
[2]; PP
  Aortic Diastolic Pressure Δ: −3 mmHg
  Aortic Diastolic Pressure Δ (%): −4%
  Aortic Systolic Pressure Δ: −2 mmHg
  Aortic Systolic Pressure Δ (%): −2%
  Brachial Diastolic Pressure Δ: −3 mmHg
  Brachial Diastolic Pressure Δ (%): −4%
  Brachial Systolic Pressure Δ: 1 mmHg
  Brachial Systolic Pressure Δ (%): 1%
  Heart Rate Δ: 0 bpm
  Heart Rate Δ (%): 0%
  Pulse Wave Velocity Δ: 0.3
  Pulse Wave Velocity Δ (%): 5%
  Aortic Diastolic Pressure ES (d): −0.53
  Aortic Systolic Pressure ES (d): −0.20
  Brachial Diastolic Pressure ES (d): −0.49
  Brachial Systolic Pressure ES (d): 0.13
  Heart Rate ES (d): 0.06
  Pulse Wave Velocity ES (d): 0.46
[3]; ITT, First 4 weeks
  LB Volume: 50374 ± 4107 kg
  LS Session Volume: 8734 ± 659 kg
  UB Session Volume: 2722 ± 210 kg
  UB Volume: 15715 ± 1317 kg
[3]; ITT, Second 4 weeks
  LB Volume: 56873 ± 4655 kg
  LS Session Volume: 10978 ± 902 kg
  UB Session Volume: 3336 ± 215 kg
  UB Volume: 17437 ± 1298 kg
[3]; ITT
  LB Volume ES (d): 0.41
  LS Session Volume ES (d): 0.79
  UB Session Volume ES (d): 0.80
  UB Volume ES (d): 0.37
  LB Volume Δ: 6499 kg
  LB Volume Δ (%): 13%
  LS Session Volume Δ: 2244 kg
  LS Session Volume Δ (%): 26%
  UB Session Volume Δ: 614 kg
  UB Session Volume Δ (%): 23%
  UB Volume Δ: 1722 kg
  UB Volume Δ (%): 11%
[3]; PP, First 4 weeks
  LB Volume: 54729 ± 5724 kg
  LS Session Volume: 9434 ± 944 kg
  UB Session Volume: 2869 ± 303 kg
  UB Volume: 16696 ± 1851 kg
[3]; PP, Second 4 weeks
  LB Volume: 60345 ± 6263 kg
  LS Session Volume: 11915 ± 1281 kg
  UB Session Volume: 3463 ± 297 kg
  UB Volume: 17923 ± 1749 kg
[3]; PP
  LB Volume ES (d): 0.34
  LS Session Volume ES (d): 0.83
  UB Session Volume ES (d): 0.75
  UB Volume ES (d): 0.26
  LB Volume Δ: 5616 kg
  LB Volume Δ (%): 10%
  LS Session Volume Δ: 2481 kg
  LS Session Volume Δ (%): 26%
  UB Session Volume Δ: 594 kg
  UB Session Volume Δ (%): 21%
  UB Volume Δ: 1227 kg
  UB Volume Δ (%): 7%
